According to article PMC6494957 (Frontiers in Microbiology, 2019):
≈ marks a conversion by molar mass, not a printed value. Where two headings read alike, the source gives them in different places.

Key:
[1] = tested on: S. aureus ATCC 29213; assay: MIC broth microdilution, quality control strain; type: cell-based; conditions: Staphylococcus aureus, ATCC29213; S. aureus ATCC 29213, quality control strain
Experimental: Luria Bertani (LB) broth (Oxoid, Australia) was applied for MIC testing in lieu of cation-adjusted Mueller–Hinton broth as robenidine has been previously shown to chelate calcium ions. Furthermore, a twofold serial dilution of robenidine was performed in 100% DMSO, with 1 μl dispensed to each well due to the hydrophobicity of the compound ([Abraham et al., 2016]). The MIC for ampicillin or gentamicin against each isolate was determined for each test to serve as an internal quality control. The MICs of isolates were determined by visual reading and using an EnSpire Multimode Plate Reader 2300 atA600nm.

[2] = tested on: Acinetobacter spp.; assay: Checkerboard, summary for Acinetobacter spp.; type: cell-based; conditions: in the presence of EDTA and PMBN
Experimental: Briefly, antimicrobial stock solutions for robenidine and PMBN were prepared at a concentration of 12.8 mg/ml in DMSO. […] A 1 μl aliquot of the first compound from each combination was dispensed along the abscissa (from row A to G) of the 96-well microplate, while the second compound was dispensed along the ordinate (from column 12 to column 3) using an electronic multichannel pipette followed by 89 μl of LB broth. Each well of the plate was inoculated with an aliquot of 10 μl bacterial suspension at a concentration of 1-5 × 10^6 colony forming units (CFU) per ml. Subsequently, the plate was incubated at 37°C for 24 h. The fractional inhibitory concentration index (FICI) described the results of the combinations, and was calculated utilizing the following formula:
DRI = MIC of drug alone/MIC of drug in combination

[3] = tested on: S. pneumoniae strains; set-up: method as in Abraham et al., 2016; Ogunniyi et al., 2017; conditions: ref Abraham et al., 2016, Ogunniyi et al., 2017; cited from earlier work
[4] = set-up: method as in Abraham et al., 2016; conditions: ref Abraham et al., 2016, cited from earlier work

## N=C(N/N=C/c1ccc(Cl)cc1)N/N=C/c1ccc(Cl)cc1 [ROB, robenidine]
[1]
  MIC: 2 µg/mL (≈ 5.98 µM)
[2]
  fold reduction of robenidine MICs: 8- to 32 fold
[3]
  effective concentrations (MIC range): 2 to 8 µg/mL
[4]; 10% serum
  serum impact on MIC values: fourfold increase
[4]; 50% serum
  serum impact on MIC values: no antimicrobial activity
